In ChEMBL document CHEMBL4004838, “Design and synthesis of novel phenyl -1, 4-beta-carboline-hybrid molecules as potential anticancer agents” (Eur J Med Chem, 2017):

Key:
Assay type in all cases: functional
NCI-H522 [1] = test: Growth inhibition of human NCI-H522 cells incubated for 48 hrs by sulforhodamine B assay; settings: NCI-H522, 48 h
Malme-3M [2] = test: Growth inhibition of human MALME-3M cells incubated for 48 hrs by sulforhodamine B assay
CAKI-1 = test: Growth inhibition of human Caki1 cells incubated for 48 hrs by sulforhodamine B assay; settings: CAKI-1, 48 h
MDA-MB-231 [3] = test: Growth inhibition of human MDA-MB-231 cells incubated for 48 hrs by sulforhodamine B assay; settings: MDA-MB-231, 48 h
MDA-MB-468 [4] = test: Growth inhibition of human MDA-MB-468 cells incubated for 48 hrs by sulforhodamine B assay; settings: MDA-MB-468, 48 h
HCC 2998 = test: Growth inhibition of human HCC2998 cells assessed as cell growth at 0.01 uM incubated for 48 hrs by sulforhodamine B assay relative to control; settings: HCC 2998, 48 h, read-out: Activity
SNB-19 = test: Growth inhibition of human SNB19 cells assessed as cell growth at 0.01 uM incubated for 48 hrs by sulforhodamine B assay relative to control; settings: SNB-19, 48 h, read-out: Activity
Malme-3M [5] = test: Growth inhibition of human MALME-3M cells assessed as cell growth at 0.01 uM incubated for 48 hrs by sulforhodamine B assay relative to control; settings: read-out: Activity
CCRF-CEM = test: Growth inhibition of human CCRF-CEM cells assessed as cell growth at 0.1 uM incubated for 48 hrs by sulforhodamine B assay relative to control; settings: read-out: Activity
NCI-H522 [6] = test: Growth inhibition of human NCI-H522 cells assessed as cell growth at 0.1 uM incubated for 48 hrs by sulforhodamine B assay relative to control; settings: NCI-H522, 48 h, read-out: Activity
SF-268 = test: Growth inhibition of human SF268 cells assessed as cell growth at 0.1 uM incubated for 48 hrs by sulforhodamine B assay relative to control; settings: SF-268, 48 h, read-out: Activity
SF-295 = test: Growth inhibition of human SF295 cells assessed as cell growth at 0.1 uM incubated for 48 hrs by sulforhodamine B assay relative to control; settings: SF-295, 48 h, read-out: Activity
M14 [7] = test: Growth inhibition of human M14 cells assessed as cell growth at 0.1 uM incubated for 48 hrs by sulforhodamine B assay relative to control; settings: M14, 48 h, read-out: Activity
UACC-257 = test: Growth inhibition of human UACC257 cells assessed as cell growth at 0.1 uM incubated for 48 hrs by sulforhodamine B assay relative to control; settings: UACC-257, 48 h, read-out: Activity
SK-OV-3 = test: Growth inhibition of human SKOV3 cells assessed as cell growth at 0.1 uM incubated for 48 hrs by sulforhodamine B assay relative to control; settings: SK-OV-3, 48 h, read-out: Activity
MDA-MB-468 [8] = test: Growth inhibition of human MDA-MB-468 cells assessed as cell growth at 0.1 uM incubated for 48 hrs by sulforhodamine B assay relative to control; settings: MDA-MB-468, 48 h, read-out: Activity
MOLT-4 = test: Growth inhibition of human MOLT4 cells assessed as cell growth at 1 uM incubated for 48 hrs by sulforhodamine B assay relative to control; settings: MOLT-4, 48 h, read-out: Activity
SR = test: Growth inhibition of human SR cells assessed as cell growth at 1 uM incubated for 48 hrs by sulforhodamine B assay relative to control; settings: read-out: Activity
EKVX = test: Growth inhibition of human EKVX cells assessed as cell growth at 1 uM incubated for 48 hrs by sulforhodamine B assay relative to control; settings: read-out: Activity
MDA-MB-435 = test: Growth inhibition of human MDA-MB-435 cells assessed as cell growth at 1 uM incubated for 48 hrs by sulforhodamine B assay relative to control; settings: MDA-MB-435, 48 h, read-out: Activity
OVCAR-4 [9] = test: Growth inhibition of human OVCAR4 cells assessed as cell growth at 1 uM incubated for 48 hrs by sulforhodamine B assay relative to control; settings: OVCAR-4, 48 h, read-out: Activity
A498 = test: Growth inhibition of human A498 cells assessed as cell growth at 1 uM incubated for 48 hrs by sulforhodamine B assay relative to control; settings: A498, 48 h, read-out: Activity
UO-31 = test: Growth inhibition of human UO31 cells assessed as cell growth at 1 uM incubated for 48 hrs by sulforhodamine B assay relative to control; settings: UO-31, 48 h, read-out: Activity
MDA-MB-231 [10] = test: Growth inhibition of human MDA-MB-231 cells assessed as cell growth at 1 uM incubated for 48 hrs by sulforhodamine B assay relative to control; settings: MDA-MB-231, 48 h, read-out: Activity
COLO 205 = test: Growth inhibition of human COLO205 cells assessed as cell growth at 100 uM incubated for 48 hrs by sulforhodamine B assay relative to control; settings: COLO 205, 48 h, read-out: Activity
SNB-75 = test: Growth inhibition of human SNB75 cells assessed as cell growth at 100 uM incubated for 48 hrs by sulforhodamine B assay relative to control; settings: SNB-75, 48 h, read-out: Activity
M14 [11] = test: Growth inhibition of human M14 cells assessed as cell growth at 100 uM incubated for 48 hrs by sulforhodamine B assay relative to control; settings: M14, 48 h, read-out: Activity
OVCAR-4 [12] = test: Growth inhibition of human OVCAR4 cells assessed as cell growth at 100 uM incubated for 48 hrs by sulforhodamine B assay relative to control; settings: OVCAR-4, 48 h, read-out: Activity
RXF 393 = test: Growth inhibition of human RXF393 cells assessed as cell growth at 100 uM incubated for 48 hrs by sulforhodamine B assay relative to control; settings: RXF 393, 48 h, read-out: Activity
PC-3 = test: Growth inhibition of human PC3 cells assessed as cell growth at 100 uM incubated for 48 hrs by sulforhodamine B assay relative to control; settings: PC-3, 48 h, read-out: Activity
DU-145 = test: Growth inhibition of human DU145 cells assessed as cell growth at 100 uM incubated for 48 hrs by sulforhodamine B assay relative to control; settings: DU-145, 48 h, read-out: Activity
[13] = read-out: LC50 (the source's name)
[14] = read-out: pLC50 (the source's name) (converted)

c1ccc2c3c([nH]c2c1)C(c1ccc(C2NCCc4c2[nH]c2ccccc42)cc1)NCC3 (racemic)
CC50 (NCI-H522 [1]; [13]): 5.21 µM | GI50 (NCI-H522 [1]; read-out: pGI50 (converted)): 0.417 µM | CC50 (NCI-H522 [1]; [14]): 5.25 µM | TGI (NCI-H522 [1]; read-out: pTGI (converted)): 1.48 µM | GI50 (Malme-3M [2]; read-out: GI50): 1.55 µM | CC50 (Malme-3M [2]; [13]): 6.24 µM | TGI (Malme-3M [2]; read-out: TGI): 3.11 µM | GI50 (Malme-3M [2]; read-out: pGI50 (converted)): 1.55 µM | CC50 (Malme-3M [2]; [14]): 6.17 µM | TGI (Malme-3M [2]; read-out: pTGI (converted)): 3.09 µM | GI50 (CAKI-1; read-out: GI50): 1.66 µM | CC50 (CAKI-1; [13]): 9.82 µM | TGI (CAKI-1; read-out: TGI): 4.03 µM | GI50 (CAKI-1; read-out: pGI50 (converted)): 1.66 µM | CC50 (CAKI-1; [14]): 9.77 µM | TGI (CAKI-1; read-out: pTGI (converted)): 4.07 µM | GI50 (MDA-MB-231 [3]; read-out: GI50): 2.96 µM | CC50 (MDA-MB-231 [3]; [13]): 3.64 µM | TGI (MDA-MB-231 [3]; read-out: TGI): 9.36 µM | GI50 (MDA-MB-231 [3]; read-out: pGI50 (converted)): 0.295 µM | CC50 (MDA-MB-231 [3]; [14]): 3.63 µM | CC50 (MDA-MB-468 [4]; [13]): 5.01 µM | GI50 (MDA-MB-468 [4]; read-out: pGI50 (converted)): 0.363 µM | CC50 (MDA-MB-468 [4]; [14]): 5.01 µM | TGI (MDA-MB-468 [4]; read-out: pTGI (converted)): 1.35 µM | growth at 0.01 µM (HCC 2998): 91% | growth at 0.01 µM (SNB-19): 97% | growth at 0.01 µM (Malme-3M [5]): 89% | growth at 0.1 µM (CCRF-CEM): 104% | growth at 0.1 µM (NCI-H522 [6]): 105% | growth at 0.1 µM (SF-268): 89% | growth at 0.1 µM (SF-295): 92% | growth at 0.1 µM (M14 [7]): 94% | growth at 0.1 µM (UACC-257): 104% | growth at 0.1 µM (SK-OV-3): 95% | growth at 0.1 µM (MDA-MB-468 [8]): 100% | growth at 1 µM (MOLT-4): 13% | growth at 1 µM (SR): 36% | growth at 1 µM (EKVX): 70% | growth at 1 µM (MDA-MB-435): 11% | growth at 1 µM (OVCAR-4 [9]): 59% | growth at 1 µM (A498): 65% | growth at 1 µM (UO-31): 52% | growth at 1 µM (MDA-MB-231 [10]): 3% | growth at 100 µM (COLO 205): 84% | growth at 100 µM (SNB-75): 98% | growth at 100 µM (M14 [11]): 95% | growth at 100 µM (OVCAR-4 [12]): 93% | growth at 100 µM (RXF 393): -81% | growth at 100 µM (PC-3): -93% | growth at 100 µM (DU-145): -94%

c1ccc2[nH]c(-c3ccc(-c4nccc5c4[nH]c4ccccc45)cc3)nc2c1
GI50 (NCI-H522 [1]; read-out: GI50): 2.06 µM | CC50 (NCI-H522 [1]; [13]): > 1 µM | TGI (NCI-H522 [1]; read-out: TGI): 5.04 µM | GI50 (NCI-H522 [1]; read-out: pGI50 (converted)): 2.04 µM | CC50 (NCI-H522 [1]; [14]): > 100 µM | TGI (NCI-H522 [1]; read-out: pTGI (converted)): 5.01 µM | GI50 (Malme-3M [2]; read-out: GI50): 1.85 µM | CC50 (Malme-3M [2]; [13]): 7.07 µM | TGI (Malme-3M [2]; read-out: TGI): 3.61 µM | GI50 (Malme-3M [2]; read-out: pGI50 (converted)): 1.86 µM | CC50 (Malme-3M [2]; [14]): 7.08 µM | TGI (Malme-3M [2]; read-out: pTGI (converted)): 3.63 µM | GI50 (CAKI-1; read-out: GI50): 2.41 µM | CC50 (CAKI-1; [13]): 3.68 µM | TGI (CAKI-1; read-out: TGI): 7.11 µM | GI50 (CAKI-1; read-out: pGI50 (converted)): 2.4 µM | CC50 (CAKI-1; [14]): 37.2 µM | TGI (CAKI-1; read-out: pTGI (converted)): 7.08 µM | GI50 (MDA-MB-231 [3]; read-out: GI50): 2.39 µM | TGI (MDA-MB-231 [3]; read-out: TGI): 5.83 µM | GI50 (MDA-MB-231 [3]; read-out: pGI50 (converted)): 2.4 µM | CC50 (MDA-MB-231 [3]; [14]): > 100 µM | TGI (MDA-MB-231 [3]; read-out: pTGI (converted)): 5.89 µM | GI50 (MDA-MB-468 [4]; read-out: GI50): 2.52 µM | CC50 (MDA-MB-468 [4]; [13]): 4.97 µM | TGI (MDA-MB-468 [4]; read-out: TGI): 6.62 µM | GI50 (MDA-MB-468 [4]; read-out: pGI50 (converted)): 2.51 µM | CC50 (MDA-MB-468 [4]; [14]): 50.1 µM | TGI (MDA-MB-468 [4]; read-out: pTGI (converted)): 6.61 µM | growth at 0.01 µM (HCC 2998): 96% | growth at 0.01 µM (SNB-19): 91% | growth at 0.01 µM (Malme-3M [5]): 93% | growth at 0.1 µM (CCRF-CEM): 102% | growth at 0.1 µM (NCI-H522 [6]): 94% | growth at 0.1 µM (SF-268): 96% | growth at 0.1 µM (SF-295): 97% | growth at 0.1 µM (M14 [7]): 98% | growth at 0.1 µM (UACC-257): 103% | growth at 0.1 µM (SK-OV-3): 98% | growth at 0.1 µM (MDA-MB-468 [8]): 99% | growth at 1 µM (MOLT-4): 93% | growth at 1 µM (SR): 88% | growth at 1 µM (EKVX): 93% | growth at 1 µM (MDA-MB-435): 91% | growth at 1 µM (OVCAR-4 [9]): 83% | growth at 1 µM (A498): 92% | growth at 1 µM (UO-31): 90% | growth at 1 µM (MDA-MB-231 [10]): 99% | growth at 100 µM (COLO 205): 65% | growth at 100 µM (SNB-75): 84% | growth at 100 µM (M14 [11]): 76% | growth at 100 µM (OVCAR-4 [12]): 42% | growth at 100 µM (RXF 393): 68% | growth at 100 µM (PC-3): 71% | growth at 100 µM (DU-145): 72%
